The nature of series [1]: ANTS/DPX leakage assay. Conditions: ANTS/DPX-loaded LUVs, Gram-positive and Gram-negative mimicking. The protocol: Large unilamellar vesicles (LUVs) and small unilamellar vesicles (SUVs) consisting of DOPG/CL (58/42 ratio in moles) and DOPG/DOPE/CL (63/23/12 ratio in moles), mimic the Gram-positive membrane and Gram-negative membrane, respectively. LUVs were prepared using the extrusion method as previously described. In particular, first lipid films were prepared by dissolving an appropriate amount of lipids in chloroform and fluorescent probes were added when necessary, then dried under a nitrogen gas stream and freeze-dried overnight. In all experiments, we used a final lipid concentration of 0.1 mM. For fluorescence experiments, buffer was added to dry lipid films and vortexed for 1 h; then the lipid suspension was freeze-thawed 6 times and extruded 10 times through polycarbonate membranes with 0.1 µm diameter pores to obtain LUVs. For circular dichroism measurements, peptide samples in SUVs were prepared as reported in the following protocol. Lipids were dissolved in chloroform and added to an equal volume of peptide solution dissolved in TFE containing appropriate peptide concentration. The samples were vortexed and lyophilised overnight. The dry samples were rehydrated with phosphate buffer 5 mM, pH 7.4 for 1 h and sonicated for 30 min.
The ANTS/DPX leakage assay was used to measure the ability of peptide to permeabilise and induce leakage of encapsulated dyes. After lipid films were prepared as previously described, ANTS (12.5 mM) and DPX (45 mM) were dissolved in 2 ml water, were added to lipid films and then lyophilised overnight. The lipid films with encapsulated ANTS and DPX were hydrated with PBS 1X buffer, vortexed for 1 h and then treated to obtain LUVs. The non-encapsulated ANTS and DPX were removed by gel filtration using a Sephadex G-50 column (1.5 cm × 10 cm) at room temperature. To start up the leakage experiment, a 2 mM peptide stock solution was prepared and LUVs were titrated with the peptide. Samples were excited at 385 nm (slit width, 5 nm) and fluorescence emission was recorded at 512 nm (slit width, 5 nm). After the addition of peptide, we evaluated leakage of encapsulated ANTS through a change in fluorescence spectra of ANTS and DPX. In particular, leakage is associated to an increase in ANTS fluorescence at 512 nm. Complete release of ANTS was obtained by using 0.1% Triton X, which caused the total destruction of liposomes. The percentage of leakage was calculated as % leakage =(Fi−F0)/(Ft−F0), where F0 represents the fluorescence of intact LUVs before the addition of peptide, and Fi and Ft denote the intensities of the fluorescence achieved after peptide and Triton-X treatment, respectively.

Series [2] concerns HaCaT cells. The settings on record: at 25.0 µM, ref Merlino et al. [22]; cited from earlier work.
The test system of series [3] is HaCaT cells. Conditions: 24 h, at 25.0 µM.
Method: The human immortalised keratinocytes HaCaT cells (AddexBio, San Diego, CA, USA) were cultured in Dulbecco’s modified Eagle’s medium containing 4 mM glutamine (DMEMg), supplemented with 10% heat-inactivated foetal bovine serum (FBS) and 0.1 mg/ml of penicillin and streptomycin, at 37 °C and 5% CO2, in 25 cm^2 or 75 cm^2 flasks[33].
The colorimetric MTT assay was carried out to measure cellular metabolic activity in terms of cell viability[33]^,[36]. Viable cells are able to reduce, by active mitochondrial dehydrogenases, the yellow salt MTT to purple formazan crystals. Briefly, 4 × 10^4 HaCaT cells, suspended in DMEMg supplemented with 2% FBS, were plated in each well of a 96-well microtiter plate. After overnight incubation, at 37 °C in a 5% CO2 atmosphere, keratinocytes were treated for 24 h with fresh serum-free medium containing the peptides 3B and C at concentrations ranging from 3.12 µM to 25 µM. Afterward, the culture medium was replaced with Hank’s buffer supplemented with 0.5 mg/ml MTT and the plate was incubated at 37 °C and 5% CO2 for 4 h. At the end, acidified isopropanol was employed to dissolve the formazan crystals. Cell viability was calculated, with respect to cells not treated with peptide, by absorbance measurements at 570 nm using a microplate reader (Infinite M200; Tecan, Salzburg, Austria)[33]. […]

Structures are written as SMILES. Read-outs that look alike come from different tables or passages of the source. Where a SMILES comes first, the peptide text is derived from it. [ ]: non-standard residue; d: D form. The star is where a group is joined. Phe(4-NH2) = Nc1ccc(C[C@H](N)C(=O)O)cc1; Pentanoyl = CCCCC(=O)*

Consider `CC[C@H](C)[C@H](NC(=O)[C@H](CCCNC(=N)N)NC(=O)[C@@H](CCCCN)NC(=O)[C@@H](CC(C)C)NC(=O)[C@H](Cc1ccccc1)NC(=O)[C@H](CCCCN)NC(=O)[C@H](CO)NC(=O)[C@H](Cc1ccccc1)NC(=O)[C@H](Cc1c[nH]c2ccccc12)NC(=O)[C@@H]1CCCN1C(=O)[C@@H](NC(=O)[C@@H](N)Cc1ccccc1)C(C)C)C(=O)N[C@@H](CC(C)C)C(N)=O` [Compound 1B, H-Phe-Val-Pro-Trp-Phe-Ser-Lys-Phe-DLeu-DLys-Arg-Ile-Leu-NH2] (H-FVPWFSKF[dL][dK]RIL-NH2), for which the “membrane leakage ability (in words)” value in series [1] is “lowest leakage ability”. Further, the cytotoxicity in series [2] is reported as 28.22%.
Take `CCCCC(=O)Nc1ccc(C[C@H](N)C(=O)N[C@H](C(=O)N2CCC[C@H]2C(=O)N[C@@H](Cc2c[nH]c3ccccc23)C(=O)N[C@@H](Cc2ccccc2)C(=O)N[C@@H](CO)C(=O)N[C@@H](CCCCN)C(=O)N[C@@H](Cc2ccccc2)C(=O)N[C@H](CC(C)C)C(=O)N[C@H](CCCCN)C(=O)N[C@@H](CCCNC(=N)N)C(=O)N[C@H](C(=O)N[C@@H](CC(C)C)C(N)=O)[C@@H](C)CC)C(C)C)cc1` [C, H-Phe(4-NHCO(CH2)3CH3)-Val-Pro-Trp-Phe-Ser-Lys-Phe-DLeu-DLys-Arg-Ile- Leu-NH2] (H-[Phe(4-NH2)](Pentanoyl)VPWFSKF[dL][dK]RIL-NH2): the cytotoxicity in series [3] is 13.29%. Besides, the “membrane leakage ability (in words)” value in series [1] is recorded as “intermediate ability to produce leakage”.

Source of the values: article PMC7534258, “Novel temporin L antimicrobial peptides: promoting self-assembling by lipidic tags to tackle superbugs” (Journal of Enzyme Inhibition and Medicinal Chemistry, 2020).
